Converted amounts (≈) assume the structure as drawn.
Tests used:
Test in all cases: antifungal activity, standard agar dilution streak method
Format in all cases: cell-based
[1] = test system: Candida albicans IFO-1388; details: IFO1388, read-out: Minimum Inhibitory Concentration
Method: (§1) The antifungal activity of the compound of the present invention was assayed by the standard agar dilution streak method against fungi.

Candida albicans KYF-602 = details: KYF602, read-out: Minimum Inhibitory Concentration
Method: as §1

[2] = test system: Candida albicans MTU-12124; details: MTU12124, read-out: Minimum Inhibitory Concentration
Method: as §1

[3] = test system: Aspergillus fumigatus MTU-06002; details: MTU06002, read-out: Minimum Inhibitory Concentration
Method: as §1

Microsporum canis 20010 = details: read-out: Minimum Inhibitory Concentration
Method: as §1

[4] = test system: Trichophyton mentagrophytes MTU-19005; details: MTU19005, read-out: Minimum Inhibitory Concentration
Method: as §1

[5] = test system: Trichophyton mentagrophytes MTU-19003; details: MTU19003, read-out: Minimum Inhibitory Concentration
Method: as §1

[6] = test system: Candida albicans IFO-1594; details: IFO1594, read-out: Minimum Inhibitory Concentration
Method: as §1

Candida albicans 3147 = details: read-out: Minimum Inhibitory Concentration
Method: as §1

[7] = test system: Candida stellatidea IFO-1398; details: IFO1398, read-out: Minimum Inhibitory Concentration
Method: as §1

| Structure (SMILES) | MIC [1] | MIC (Candida albicans KYF-602) | MIC [2] | MIC [3] | MIC (Microsporum canis 20010) | MIC [4] | MIC [5] | MIC [6] | MIC (Candida albicans 3147) | MIC [7] |
| --- | --- | --- | --- | --- | --- | --- | --- | --- | --- | --- |
| Clc1ccc(-c2ncc3nc(Cl)cc(Cl)n23)cc1 [Ex. 1, 2,4-dichloro-6-(4-chlorophenyl)imidazo[1,5-a]pyrimidine] | 1.56 µg/mL (≈ 5.23 µM) | 6.25 µg/mL (≈ 20.9 µM) | 3.13 µg/mL (≈ 10.5 µM) | 6.25 µg/mL (≈ 20.9 µM) | 0.78 µg/mL (≈ 2.61 µM) | 0.78 µg/mL (≈ 2.61 µM) | 1.56 µg/mL (≈ 5.23 µM) | 3.13 µg/mL (≈ 10.5 µM) | 6.25 µg/mL (≈ 20.9 µM) | 0.2 µg/mL (≈ 0.67 µM) |
| Clc1cc(Cl)n2c(-c3ccc(Br)cc3)ncc2n1 [Ex. 5] | 1.56 µg/mL (≈ 4.55 µM) | 6.25 µg/mL (≈ 18.2 µM) | 3.13 µg/mL (≈ 9.13 µM) | 6.25 µg/mL (≈ 18.2 µM) | 0.78 µg/mL (≈ 2.27 µM) | 0.78 µg/mL (≈ 2.27 µM) | 1.56 µg/mL (≈ 4.55 µM) | 3.13 µg/mL (≈ 9.13 µM) | 1.56 µg/mL (≈ 4.55 µM) | 0.2 µg/mL (≈ 0.583 µM) |
| Clc1ccc(Cc2ncc3nc(Cl)cc(Cl)n23)cc1 [Ex. 16] | 1.56 µg/mL (≈ 4.99 µM) | 3.13 µg/mL (≈ 10 µM) | 6.25 µg/mL (≈ 20 µM) | 3.13 µg/mL (≈ 10 µM) | 0.39 µg/mL (≈ 1.25 µM) | 0.2 µg/mL (≈ 0.64 µM) | 1.56 µg/mL (≈ 4.99 µM) | 1.56 µg/mL (≈ 4.99 µM) | 1.56 µg/mL (≈ 4.99 µM) | 0.78 µg/mL (≈ 2.5 µM) |
| CC(c1ccccc1)c1ncc2nc(Cl)cc(Cl)n12 (centres unmarked) [Ex. 18] | 0.78 µg/mL (≈ 2.67 µM) | 12.5 µg/mL (≈ 42.8 µM) | 3.13 µg/mL (≈ 10.7 µM) | 25 µg/mL (≈ 85.6 µM) | 1.56 µg/mL (≈ 5.34 µM) | 1.56 µg/mL (≈ 5.34 µM) | 1.56 µg/mL (≈ 5.34 µM) | 3.13 µg/mL (≈ 10.7 µM) | 3.13 µg/mL (≈ 10.7 µM) | 3.13 µg/mL (≈ 10.7 µM) |
| Clc1ccc(Cc2ncc3nc(Cl)cc(Cl)n23)c(Cl)c1 [Ex. 20] | 0.78 µg/mL (≈ 2.25 µM) | > 6.25 µg/mL | 0.78 µg/mL (≈ 2.25 µM) | > 6.25 µg/mL | 0.78 µg/mL (≈ 2.25 µM) | 0.78 µg/mL (≈ 2.25 µM) | 1.56 µg/mL (≈ 4.5 µM) | 0.78 µg/mL (≈ 2.25 µM) | 0.78 µg/mL (≈ 2.25 µM) | 0.2 µg/mL (≈ 0.576 µM) |

Further compounds by falling MIC [1], results first:

| MIC [1] | MIC (Candida albicans KYF-602) | MIC [2] | MIC [3] | MIC (Microsporum canis 20010) | MIC [4] | MIC [5] | MIC [6] | MIC (Candida albicans 3147) | MIC [7] | Structure (SMILES) |
| --- | --- | --- | --- | --- | --- | --- | --- | --- | --- | --- |
| 3.13 µg/mL (≈ 8.03 µM) | > 6.25 µg/mL | 1.56 µg/mL (≈ 4 µM) | – | – | – | – | 6.25 µg/mL (≈ 16 µM) | 1.56 µg/mL (≈ 4 µM) | 1.56 µg/mL (≈ 4 µM) | Clc1cc(Cl)n2c(-c3ccc(I)cc3)ncc2n1 [Ex. 21] |
| 1.56 µg/mL (≈ 4.68 µM) | 3.13 µg/mL (≈ 9.4 µM) | 1.56 µg/mL (≈ 4.68 µM) | > 100 µg/mL | 0.39 µg/mL (≈ 1.17 µM) | 139 µg/mL (≈ 417 µM) | 0.78 µg/mL (≈ 2.34 µM) | 1.56 µg/mL (≈ 4.68 µM) | 1.56 µg/mL (≈ 4.68 µM) | 0.39 µg/mL (≈ 1.17 µM) | Clc1cc(Cl)n2c(-c3ccc(Cl)c(Cl)c3)ncc2n1 [Ex. 7] |
| 0.78 µg/mL (≈ 2.34 µM) | 6.25 µg/mL (≈ 18.8 µM) | 1.56 µg/mL (≈ 4.68 µM) | 12.5 µg/mL (≈ 37.5 µM) | 1.56 µg/mL (≈ 4.68 µM) | 0.78 µg/mL (≈ 2.34 µM) | 1.56 µg/mL (≈ 4.68 µM) | 3.13 µg/mL (≈ 9.4 µM) | 1.56 µg/mL (≈ 4.68 µM) | 0.78 µg/mL (≈ 2.34 µM) | Clc1ccc(-c2ncc3nc(Cl)cc(Cl)n23)c(Cl)c1 [Ex. 9] |
| 0.2 µg/mL (≈ 0.74 µM) | 3.13 µg/mL (≈ 11.6 µM) | 6.25 µg/mL (≈ 23.1 µM) | 50 µg/mL (≈ 185 µM) | 1.56 µg/mL (≈ 5.77 µM) | 1.56 µg/mL (≈ 5.77 µM) | 3.13 µg/mL (≈ 11.6 µM) | 0.39 µg/mL (≈ 1.44 µM) | 1.56 µg/mL (≈ 5.77 µM) | 3.13 µg/mL (≈ 11.6 µM) | Clc1cc(Cl)n2c(C3CCCCC3)ncc2n1 [Ex. 23] |
